US8680113B2, “BMI-1 protein expression modulators” (PTC Therapeutics, Inc., priority 2008, dated 2014)

Each molecule was assayed on Bmi-1 (assay: Sandwich ELISA Assay (Bmi-1 ELISA in HT-1080 cells)).
Type: cell-based, human
Summary of the method: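 HT-1080 cells (8000/well) were treated with compounds in 0.5% final DMSO for 40-48 h at 37°C and then lysed. Bmi-1 in lysates was measured by sandwich ELISA: overnight capture at 4°C on mouse monoclonal, rabbit anti-Bmi-1 detection, HRP anti-rabbit, TMB. OD450 was read with an OD570 reference against a recombinant GST-Bmi-1 standard curve (0-8000 pg/mL).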

IC50 [µM] | SMILES
< 0.5 | CCc1ccc(Nc2nc(-c3c(C)nc4ccccn34)cs2)cc1 [Cpd 192, N-(4-ethylphenyl)-4-(2-methylimidazo[1,2-a]pyridin-3-yl)-1,3-thiazol-2-amine]
< 0.5 | Cc1cc(Br)c(Nc2nc(-c3c(C)nc4ncccn34)cs2)c(Br)c1 [Cpd 21, N-(2,6-dibromo-4-methylphenyl)-4-(2-methylimidazo[1,2-a]pyrimidin-3-yl)thiazol-2-amine]
< 0.5 | CC(=O)c1ccc(Nc2nc(-c3c(C)nc4ccc(Cl)cn34)cs2)cc1 [Cpd 62, 1-(4-{[4-(6-chloro-2-methylimidazo[1,2-a]pyridin-3-yl)-1,3-thiazol-2-yl]amino}phenyl)ethanone]
< 0.5 | Cc1nc2ccc(F)cn2c1-c1csc(Nc2c(Br)cccc2Br)n1 [Cpd 239, N-(2,6-dibromophenyl)-4-(6-fluoro-2-methylimidazo[1,2-a]pyridin-3-yl)-1,3-thiazol-2-amine]
< 0.5 | CCN(CC)c1ccc(Nc2nccc(-c3cnc4ncccn34)n2)cc1 [Cpd 263, N,N-diethyl-N′-[4-(imidazo[1,2-a]pyrimidin-3-yl)pyrimidin-2-yl]benzene-1,4-diamine]
< 0.5 | Cc1nc2ncccn2c1-c1csc(Nc2ccc(Br)cc2)n1 [Cpd 48, N-(4-bromophenyl)-4-(2-methylimidazo[1,2-a]pyrimidin-3-yl)-1,3-thiazol-2-amine]
< 0.5 | Cc1nc2ccc(F)cn2c1-c1csc(Nc2ccc(Br)cc2)n1 [Cpd 162, N-(4-bromophenyl)-4-(6-fluoro-2-methylimidazo[1,2-a]pyridin-3-yl)-1,3-thiazol-2-amine]
< 0.5 | COc1ccc(Nc2nc(-c3c(C)nc4ccc(Cl)cn34)cs2)cc1 [Cpd 59, 4-(6-chloro-2-methylimidazo[1,2-a]pyridin-3-yl)-N-(4-methoxyphenyl)-1,3-thiazol-2-amine]
< 0.5 | Cc1nc2ccccn2c1-c1ccnc(Nc2cccc(Br)c2)n1 [Cpd 127, N-(3-bromophenyl)-4-(2-methylimidazo[1,2-a]pyridin-3-yl)pyrimidin-2-amine]
< 0.5 | CC(=O)c1ccc(Nc2nc(-c3c(C)nc4ncccn34)cs2)cc1 [Cpd 34, 1-(4-{[4-(2-methylimidazo[1,2-a]pyrimidin-3-yl)-1,3-thiazol-2-yl]amino}phenyl)ethanone]
< 0.5 | Cc1nc2ccc(Cl)cn2c1-c1csc(Nc2ccc(Br)cc2)n1 [Cpd 61, N-(4-bromophenyl)-4-(6-chloro-2-methylimidazo[1,2-a]pyridin-3-yl)-1,3-thiazol-2-amine]
< 0.5 | CCCc1nc2ccccn2c1-c1csc(Nc2ccc(OC)cc2)n1 [Cpd 180, N-(4-methoxyphenyl)-4-(2-propylimidazo[1,2-a]pyridin-3-yl)-1,3-thiazol-2-amine]
< 0.5 | CCN(CC)c1ccc(Nc2nc(-c3c(C)nc4ccc(C)cn34)cs2)cc1 [Cpd 75, N′-[4-(2,6-dimethylimidazo[1,2-a]pyridin-3-yl)-1,3-thiazol-2-yl]-N,N-diethylbenzene-1,4-diamine]
< 0.5 | Cc1nc2ccc(Cl)cn2c1-c1csc(Nc2ccc(Cl)cc2Cl)n1 [Cpd 218, 4-(6-chloro-2-methylimidazo[1,2-a]pyridin-3-yl)-N-(2,4-dichlorophenyl)-1,3-thiazol-2-amine]
< 0.5 | Cc1ccn2c(-c3csc(Nc4cccc(O)c4)n3)c(C)nc2c1 [Cpd 31, 3-{[4-(2,7-dimethylimidazo[1,2-a]pyridin-3-yl)-1,3-thiazol-2-yl]amino}phenol]
< 0.5 | CCOc1ccc(N(C)c2nccc(-c3c(C)nc4ccccn34)n2)cc1 [Cpd 142, N-(4-ethoxyphenyl)-N-methyl-4-(2-methylimidazo[1,2-a]pyridin-3-yl)pyrimidin-2-amine]
< 0.5 | Cc1ccc(N(C)c2nccc(-c3c(C)nc4ccccn34)n2)cc1 [Cpd 189, N-methyl-4-(2-methylimidazo[1,2-a]pyridin-3-yl)-N-(4-methylphenyl)pyrimidin-2-amine]
< 0.5 | Cc1ccc(Nc2nccc(-c3c(C)nc4ncccn34)n2)cc1 [Cpd 168, 4-(2-methylimidazo[1,2-a]pyrimidin-3-yl)-N-(4-methylphenyl)pyrimidin-2-amine]
< 0.5 | CCc1nc2ncccn2c1-c1csc(Nc2ccc(OC)cc2)n1 [Cpd 144, 4-(2-ethylimidazo[1,2-a]pyrimidin-3-yl)-N-(4-methoxyphenyl)-1,3-thiazol-2-amine]
< 0.5 | CCCc1nc2ncccn2c1-c1csc(Nc2ccc(Br)cc2)n1 [Cpd 184, N-(4-bromophenyl)-4-(2-propylimidazo[1,2-a]pyrimidin-3-yl)-1,3-thiazol-2-amine]
< 0.5 | COc1ccc(Nc2nc(-c3c(C)nc4ccc(Cl)cn34)cs2)cc1OC [Cpd 207, 4-(6-chloro-2-methylimidazo[1,2-a]pyridin-3-yl)-N-(3,4-dimethoxyphenyl)-1,3-thiazol-2-amine]
< 0.5 | Cc1nc2ccccn2c1-c1ccnc(Nc2ccc3c(c2)OCO3)n1 [Cpd 123, N-(1,3-benzodioxol-5-yl)-4-(2-methylimidazo[1,2-a]pyridin-3-yl)pyrimidin-2-amine]

IC50 [µM] | SMILES
< 0.5 | Cc1nc2ccc(Cl)cn2c1-c1csc(Nc2ccc(C(C)(C)C)cc2)n1 [Cpd 112, N-(4-tert-butylphenyl)-4-(6-chloro-2-methylimidazo[1,2-a]pyridin-3-yl)-1,3-thiazol-2-amine]
< 0.5 | CCCc1nc2ccccn2c1-c1csc(Nc2ccc3c(c2)OCO3)n1 [Cpd 175, N-(1,3-benzodioxol-5-yl)-4-(2-propylimidazo[1,2-a]pyridin-3-yl)-1,3-thiazol-2-amine]
< 0.5 | Brc1cccc(Nc2nccc(-c3cnc4ccccn34)n2)c1 [Cpd 256, N-(3-bromophenyl)-4-(imidazo[1,2-a]pyridin-3-yl)pyrimidin-2-amine]
< 0.5 | COc1ccc(Nc2nc(-c3cnc4ccc(Cl)cn34)cs2)cc1Cl [Cpd 109, 4-(6-chloroimidazo[1,2-a]pyridin-3-yl)-N-(3-chloro-4-methoxyphenyl)-1,3-thiazol-2-amine]
< 0.5 | Cc1nc2ccc(F)cn2c1-c1csc(Nc2ccc(Br)cc2Cl)n1 [Cpd 165, N-(4-bromo-2-chlorophenyl)-4-(6-fluoro-2-methylimidazo[1,2-a]pyridin-3-yl)-1,3-thiazol-2-amine]
< 0.5 | Cc1nc2ncccn2c1-c1ccnc(Nc2ccc(Br)cc2)n1 [Cpd 126, N-(4-bromophenyl)-4-(2-methylimidazo[1,2-a]pyrimidin-3-yl)pyrimidin-2-amine]
< 0.5 | Cc1nc2ccc(Cl)cn2c1-c1csc(Nc2ccc(N(C)C)cc2)n1 [Cpd 58, N′-[4-(6-chloro-2-methylimidazo[1,2-a]pyridin-3-yl)-1,3-thiazol-2-yl]-N,N-dimethylbenzene-1,4-diamine]
< 0.5 | COc1cccc(Nc2nc(-c3c(C)nc4ccccn34)cs2)c1 [Cpd 188, N-(3-methoxyphenyl)-4-(2-methylimidazo[1,2-a]pyridin-3-yl)-1,3-thiazol-2-amine]
< 0.5 | COc1cccc(Nc2nc(-c3c(C)nc4ccc(Cl)cn34)cs2)c1 [Cpd 217, 4-(6-chloro-2-methylimidazo[1,2-a]pyridin-3-yl)-N-(3-methoxyphenyl)-1,3-thiazol-2-amine]
< 0.5 | Cc1ccc(Nc2nccc(-c3c(C)nc4ccccn34)n2)cc1 [Cpd 169, 4-(2-methylimidazo[1,2-a]pyridin-3-yl)-N-(4-methylphenyl)pyrimidin-2-amine]
< 0.5 | CCCc1nc2ccccn2c1-c1csc(Nc2ccc(C(C)=O)cc2)n1 [Cpd 177, 1-(4-{[4-(2-propylimidazo[1,2-a]pyridin-3-yl)-1,3-thiazol-2-yl]amino}phenyl)ethanone]
< 0.5 | Cc1ccc(Nc2nc(-c3c(C)nc4cc(Cl)ccn34)cs2)cc1 [Cpd 243, 4-(7-chloro-2-methylimidazo[1,2-a]pyridin-3-yl)-N-(4-methylphenyl)-1,3-thiazol-2-amine]
< 0.5 | Cc1nc2ccccn2c1-c1csc(Nc2ccc(I)cc2)n1 [Cpd 53, N-(4-iodophenyl)-4-(2-methylimidazo[1,2-a]pyridin-3-yl)-1,3-thiazol-2-amine]
< 0.5 | Cc1nc2ncccn2c1-c1ccnc(N(C)c2ccccc2Cl)n1 [Cpd 140, N-(2-chlorophenyl)-N-methyl-4-(2-methylimidazo[1,2-a]pyrimidin-3-yl)pyrimidin-2-amine]
< 0.5 | COc1ccc(Nc2nc(-c3c(C)nc4ccc(Cl)cn34)cs2)cc1F [Cpd 96, 4-(6-chloro-2-methylimidazo[1,2-a]pyridin-3-yl)-N-(3-fluoro-4-methoxyphenyl)-1,3-thiazol-2-amine]
< 0.5 | Cc1nc2ccc(Cl)cn2c1-c1csc(Nc2c(Cl)cccc2Cl)n1 [Cpd 98, 4-(6-chloro-2-methylimidazo[1,2-a]pyridin-3-yl)-N-(2,6-dichlorophenyl)-1,3-thiazol-2-amine]
< 0.5 | COCCOc1ccc(Nc2nc(-c3c(C)nc4ccccn34)cs2)cc1 [Cpd 52, N-[4-(2-methoxyethoxy)phenyl]-4-(2-methylimidazo[1,2-a]pyridin-3-yl)-1,3-thiazol-2-amine]
< 0.5 | Cc1nc2ccc(F)cn2c1-c1csc(Nc2ccc(C(C)(C)C)cc2)n1 [Cpd 164, N-(4-tert-butylphenyl)-4-(6-fluoro-2-methylimidazo[1,2-a]pyridin-3-yl)-1,3-thiazol-2-amine]
< 0.5 | COc1ccc(Nc2nc(-c3c(C)nc4ccc(C)cn34)cs2)cc1Cl [Cpd 73, N-(3-chloro-4-methoxyphenyl)-4-(2,6-dimethylimidazo[1,2-a]pyridin-3-yl)-1,3-thiazol-2-amine]
< 0.5 | CCCc1nc2ncccn2c1-c1csc(Nc2ccc(OC)c(F)c2)n1 [Cpd 181, N-(3-fluoro-4-methoxyphenyl)-4-(2-propylimidazo[1,2-a]pyrimidin-3-yl)-1,3-thiazol-2-amine]
< 0.5 | Cc1ccc2nc(C)c(-c3csc(Nc4ccc(Cl)cc4)n3)n2c1 [Cpd 78, N-(4-chlorophenyl)-4-(2,6-dimethylimidazo[1,2-a]pyridin-3-yl)-1,3-thiazol-2-amine]
